Where a SMILES comes first, the peptide text is derived from it. The star is where a group is joined. Cbz = O=C(OCc1ccccc1)*; CH2F = FC*

Test [1] deals with advanced colorectal cancer. As to conditions: cited from earlier work.
A further test relates to HCT8 cells. Briefly: MakA with 5FU, tumor cell morphology. The conditions noted are these: HCT8, compared to untreated control. The format is cell-based, human. The procedure: B) Change in tumor cell morphology in response to MakA and 5FU or MakA at different concentration in combination with 5FU (20 μM). Scale bar=30 μm
Further, the effect on tumor cell morphology was investigated. Unlike 5FU or MakA alone, the combination of MakA and 5FU caused massive changes in tumor cell morphology (FIG. 8B).

The subject of the next test is colon carcinoma cells. Kind of test: Caspase inhibition and MakA-induced cell death. The class given is cell-based, human. As to conditions: pretreatment; Presto Blue, MTS, flow cytometry. The procedure: For cell death experiments, cells were grown on 96-well plate (1×10^4/well, Tecan Group Ltd) overnight and treated with MakA at different concentration for 48 hours at +37° C., 5% CO2. Cell death was quantified by two different biochemical methods: (1) reduction in PrestoBlue staining; and (2) reduction in MTS absorbance. Cell death is expressed as percentage (%) of untreated control cells for PrestoBlue assay or reduction in absorbance for MTS assay.
For cell death analysis, cells were treated with MakA or vehicle control for 48 h and were subjected to flow cytometry analysis for apoptotic cell death measurement using either Annexin V/Propidium iodide or Annexin V/7AAD (BD Pharmingen) staining according to manufactures instruction. Percentage of apoptotic cells was determined by BD LSRII and BD Accuri C6 flow cytometer (BD Bioscience), respectively.
To address if caspases plays an important role in MakA induced cell death, colon carcinoma cells were pretreated with zVAD-fmk, a pan caspase inhibitor; (Enzolifesciences, Cat #ALX-260-020-M001) followed by treatment with MakA.

The subject of test [2] is β-catenin in HCT8 and DLD1 cells. Briefly: β-catenin signaling in colon cancer cells (western blot, fractionation, confocal). The format is cell-based, human. As to conditions: HCT8 and DLD1 cells. Here is the method: Colon carcinoma cells were grown on 8-well chamber slide (3×10^4/well, Millipore) overnight, followed by treatment with MakA for 6 or 24 hours and treated with either Alexa-568 labelled or unlabeled MakA (500 nM), fixed with 2% paraformaldehyde (20 min), permeabilized with Triton X (0.25%). Cells were incubated with anti-Ki67 (1:300), anti-β-catenin (1:300), anti-pAKT (1:100) primary antibodies overnight at +4° C., followed by incubation with corresponding Alexa-488 or Alex-568 conjugated secondary antibodies (1:200) for 1 hour. Finally, cells were counterstained with nuclear marker DAPI for 5 min. Slides were mounted with Fluoromount™ aqueous mounting medium (Sigma) and examined using EZC1 Eclipse laser scanning confocal microscope (Nikon), using 63×/1.4 plan Apo ns lens. Images were captured and processed using the NIS-Elements (Nikon) and ImageJ software.
To examine whether MakA affects β-catenin signaling in human colon cancer cells, HCT8 and DLD1 cells carrying mutations that inactivates APC tumor suppressor gene (Mouradov, D. et al. (2014) Cancer Res. 2014 Jun. 15; 74(12):3238-47) were used.
To address if MakA decreases the nuclear accumulation of β-catenin, cells were treated with MakA and fractionated into cytoplasmic and nuclear fractions.
As caspase-3 mediated fragmentation of β-catenin has been reported (Steinhusen, U. et al. (2000) J Biol Chem 275: 16345-16353), its role in MakA induced β-catenin fragmentation was investigated.
(A western blot detects proteins with antibodies after separation by electrophoresis.)

Consider `O=c1[nH]cc(F)c(=O)[nH]1` [5FU, 5-fluorouracil, reference compound], for which the overall response rate in test [1] is listed as 10-15%. Also, the tumor cell morphology result with HCT8 cells was “caused increased cell size”.
Consider `COC(=O)C[C@H](NC(=O)[C@H](C)NC(=O)[C@@H](NC(=O)OCc1ccccc1)C(C)C)C(=O)CF` [zVAD-fmk, reference compound] (Cbz-Val-Ala-Asp(OMe)-CH2F), for which the “effect of caspase inhibitor on MakA-induced cell death” value with colon carcinoma cells was “partially rescued the cells from MakA-induced cell death”. Further, the “effect of caspase inhibitor on MakA-induced β-catenin fragmentation” value in test [2] was “rescued both HCT8 and DLD1 cells from MakA-induced fragmentation and decrease in β-catenin”.

Source of the values: US12533393B2, “Vibrio cholerae protein for use against cancer” (priority 2019, dated 2026).
